In PubChem BioAssay AID270 (DTP/NCI, 2004):
Several values for one entry are separate records, joined by “and”; a condition that tells them apart may be missing. Identical values can stand only once. Results filed as inconclusive are left out.

Test system: BDF1 mice, s.c. Lewis lung carcinoma, T/C %
Assay: NCI In Vivo Anticancer Drug Screen. Data for tumor model Lewis Lung Carcinoma (subcutaneous) in B6D2F1 (BDF1) mice
In short: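 First, mice carry a transplantable tumor. Next, groups receive either compound or vehicle. Finally, survival or tumor dimensions in the dosed animals are divided by the corresponding control figure.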

[1] = endpoint: mean tumor weight, dose: 25.0 mg/kg/injection, schedule: Q01DX011 (sc), vehicle: steriod suspending solution, higher = larger tumour
[2] = endpoint: mean tumor weight, dose: 50.0 mg/kg/injection, schedule: Q01DX011 (sc), vehicle: steriod suspending solution, higher = larger tumour

Question: Which results are given for C[C@]12C=CC(=O)C=C1CC[C@@H]1[C@@H]2CC[C@]2(C)OC(=O)CC[C@@H]12?
Answer: T/C (endpoint: mean tumor weight, dose: 12.5 mg/kg/injection, schedule: Q01DX011 (sc), vehicle: steriod suspending solution, higher = larger tumour): 75 % of control; T/C [1]: 102 % of control; T/C [2]: 53 % of control; T/C (endpoint: mean tumor weight, dose: 100.0 mg/kg/injection, schedule: Q01DX011 (sc), vehicle: steriod suspending solution, higher = larger tumour): 97 % of control

Question: For Cc1ccc(N2CCN(CCCN3CCN(c4ccccc4Cl)CC3)CC2)cc1, which T/C (endpoint: mean tumor weight, dose: 22.5 mg/kg/injection, schedule: Q01DX011 (ip), vehicle: carboxymethylcellulose (CMC), higher = larger tumour) is on record?
Answer: 108 % of control

Question: What about the T/C (endpoint: mean tumor weight, dose: 45.0 mg/kg/injection, schedule: Q01DX011 (ip), vehicle: carboxymethylcellulose (CMC), higher = larger tumour) of the same molecule?
Answer: 45 % of control

Question: What about the T/C (endpoint: mean tumor weight, dose: 90.0 mg/kg/injection, schedule: Q01DX011 (ip), vehicle: carboxymethylcellulose (CMC), higher = larger tumour) of the same molecule?
Answer: 38 % of control

Question: With Cc1cc2c(c3oc(C4(C)OC4C4OC4C)cc(=O)c13)C(=O)c1c(O)c(C3CC(C)(N(C)C)C(O)C(C)O3)cc(C3CC(N(C)C)C(O)C(C)O3)c1C2=O (stereo unspecified) as the molecule, how does the T/C (endpoint: median survival time, dose: 4.0 micrograms/kg/injection, schedule: Q01DX009 (ip), vehicle: DMSO, higher = longer survival) read?
Answer: 105 % of control

Question: And the T/C (endpoint: median survival time, dose: 8.0 micrograms/kg/injection, schedule: Q01DX009 (ip), vehicle: DMSO, higher = longer survival)?
Answer: 108 % of control

Question: What about the T/C (endpoint: median survival time, dose: 16.0 micrograms/kg/injection, schedule: Q01DX009 (ip), vehicle: DMSO, higher = longer survival) of the same molecule?
Answer: 100 % of control

Question: What does the source list for Nc1nc(=O)n(C2CC(O)C(CO)O2)cc1Br (stereo unspecified)?
Answer: T/C (endpoint: mean tumor weight, dose: 50.0 mg/kg/injection, schedule: Q01DX011 (ip), vehicle: carboxymethylcellulose (CMC), higher = larger tumour): 65 % of control; T/C (endpoint: mean tumor weight, dose: 100.0 mg/kg/injection, schedule: Q01DX011 (ip), vehicle: carboxymethylcellulose (CMC), higher = larger tumour): 55 % of control; T/C (endpoint: mean tumor weight, dose: 200.0 mg/kg/injection, schedule: Q01DX011 (ip), vehicle: carboxymethylcellulose (CMC), higher = larger tumour): 64 % of control; T/C (endpoint: mean tumor weight, dose: 400.0 mg/kg/injection, schedule: Q01DX011 (ip), vehicle: carboxymethylcellulose (CMC), higher = larger tumour): 88 % of control; T/C (endpoint: mean tumor weight, dose: 800.0 mg/kg/injection, schedule: Q01DX011 (ip), vehicle: carboxymethylcellulose (CMC), higher = larger tumour): 34 % of control

Question: Which T/C (endpoint: mean tumor weight, dose: 43.8 mg/kg/injection, schedule: Q01DX011 (sc), vehicle: steriod suspending solution, higher = larger tumour) does the source give for C[C@]12CC[C@@H]3c4ccccc4CC[C@H]3[C@@H]1CC[C@@H]2O here?
Answer: 71 % of control

Question: What about the T/C (endpoint: mean tumor weight, dose: 87.5 mg/kg/injection, schedule: Q01DX011 (sc), vehicle: steriod suspending solution, higher = larger tumour) of the same molecule?
Answer: 51 % of control

Question: What about the T/C (endpoint: mean tumor weight, dose: 125.0 mg/kg/injection, schedule: Q01DX011 (sc), vehicle: steriod suspending solution, higher = larger tumour) of the same molecule?
Answer: 120 % of control

Question: What about the T/C (endpoint: mean tumor weight, dose: 175.0 mg/kg/injection, schedule: Q01DX011 (sc), vehicle: steriod suspending solution, higher = larger tumour) of the same molecule?
Answer: 56 % of control

Question: And the T/C (endpoint: mean tumor weight, dose: 250.0 mg/kg/injection, schedule: Q01DX011 (sc), vehicle: steriod suspending solution, higher = larger tumour)?
Answer: 45 % of control and 69 % of control

Question: What about the T/C (endpoint: mean tumor weight, dose: 350.0 mg/kg/injection, schedule: Q01DX011 (sc), vehicle: steriod suspending solution, higher = larger tumour) of the same molecule?
Answer: 32 % of control

Question: And the T/C (endpoint: mean tumor weight, dose: 400.0 mg/kg/injection, schedule: Q01DX011 (sc), vehicle: steriod suspending solution, higher = larger tumour)?
Answer: 14 % of control

Question: And the T/C (endpoint: mean tumor weight, dose: 600.0 mg/kg/injection, schedule: Q01DX011 (sc), vehicle: steriod suspending solution, higher = larger tumour)?
Answer: 22 % of control

Question: What about the T/C (endpoint: mean tumor weight, dose: 1000.0 mg/kg/injection, schedule: Q01DX011 (sc), vehicle: steriod suspending solution, higher = larger tumour) of the same molecule?
Answer: 35 % of control and 54 % of control

Question: Which results are given for CC(=O)[C@@]1(O)CC[C@H]2[C@@H]3C[C@H](C)C4=CC(=O)C=C[C@]4(C)[C@@]3(F)[C@@H](O)C[C@@]21C?
Answer: T/C [1]: 28 % of control; T/C [2]: 18 % of control
